Here are results for two compounds from article PMC7658267, “Effects of CYP46A1 Inhibition on Long-Term-Depression in Hippocampal Slices ex vivo and 24S-Hydroxycholesterol Levels in Mice in vivo” (Frontiers in Molecular Neuroscience, 2020).

In assay [1] the target is T1, CYP46A1 (Homo sapiens, UniProt Q9Y6A2). Nature of the assay: recombinant human CYP46A1 microsomes, cholesterol to 24-hydroxycholesterol, LC-MS/MS ([…] with testosterone as substrate). Format: biochemical.
The target in assay [2] is T2, Human M2 (Homo sapiens, UniProt P08172).
T2 construct: gene CHRM2
T2 sequence (P08172 whole entry): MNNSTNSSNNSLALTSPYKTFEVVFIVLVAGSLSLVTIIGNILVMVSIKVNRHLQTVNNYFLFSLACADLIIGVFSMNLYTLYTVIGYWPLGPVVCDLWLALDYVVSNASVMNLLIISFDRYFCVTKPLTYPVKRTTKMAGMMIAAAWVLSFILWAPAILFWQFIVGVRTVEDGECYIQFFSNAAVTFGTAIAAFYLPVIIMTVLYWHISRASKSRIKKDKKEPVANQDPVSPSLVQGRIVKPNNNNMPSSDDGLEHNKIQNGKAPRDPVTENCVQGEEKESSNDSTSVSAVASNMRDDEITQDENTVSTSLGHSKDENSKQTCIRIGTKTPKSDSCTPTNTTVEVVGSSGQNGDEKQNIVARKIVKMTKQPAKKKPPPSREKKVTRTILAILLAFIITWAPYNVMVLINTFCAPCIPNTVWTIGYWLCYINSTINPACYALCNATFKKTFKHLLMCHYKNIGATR
Nature of the assay: biochemical. Set-up: CEREP off-target binding panel, per cent inhibition at 10 uM, n = 2.

In assay [3] the target is T3, Human β1 (Homo sapiens, UniProt P08588).
T3 construct: gene ADRB1
T3 sequence (P08588 whole entry): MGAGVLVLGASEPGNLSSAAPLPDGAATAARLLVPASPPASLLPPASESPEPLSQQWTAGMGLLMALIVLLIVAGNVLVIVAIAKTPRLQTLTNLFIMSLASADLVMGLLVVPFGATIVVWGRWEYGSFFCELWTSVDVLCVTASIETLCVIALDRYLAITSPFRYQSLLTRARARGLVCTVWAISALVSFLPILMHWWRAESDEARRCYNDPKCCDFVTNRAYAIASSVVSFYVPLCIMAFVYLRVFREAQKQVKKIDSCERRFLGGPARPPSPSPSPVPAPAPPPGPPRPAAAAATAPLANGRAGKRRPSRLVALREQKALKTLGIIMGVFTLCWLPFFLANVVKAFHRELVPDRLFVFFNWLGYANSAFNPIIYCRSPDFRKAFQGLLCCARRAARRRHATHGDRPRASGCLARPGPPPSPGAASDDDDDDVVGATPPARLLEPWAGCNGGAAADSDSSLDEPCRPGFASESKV
Nature of the assay: biochemical. The arrangement: CEREP off-target binding panel, per cent inhibition at 10 uM, n = 2.

Assay [4] has as its target T1, CYP46A1. Nature of the assay: recombinant human CYP46A1 microsomes, cholesterol to 24-hydroxycholesterol, LC-MS/MS ([…] with testosterone as substrate). Format: biochemical. The source holds these as a separate data set.
Assay [5] concerns the target T4, Human 5-HT2A (Homo sapiens, UniProt P28223).
T4 construct: gene HTR2A
Nature of the assay: biochemical. Set-up: CEREP off-target binding panel, per cent inhibition at 10 uM, n = 2.

pIC50: −log10 of the molar value. Where two headings read alike, the source gives them in different places.

T1 sequence (Q9Y6A2 whole entry): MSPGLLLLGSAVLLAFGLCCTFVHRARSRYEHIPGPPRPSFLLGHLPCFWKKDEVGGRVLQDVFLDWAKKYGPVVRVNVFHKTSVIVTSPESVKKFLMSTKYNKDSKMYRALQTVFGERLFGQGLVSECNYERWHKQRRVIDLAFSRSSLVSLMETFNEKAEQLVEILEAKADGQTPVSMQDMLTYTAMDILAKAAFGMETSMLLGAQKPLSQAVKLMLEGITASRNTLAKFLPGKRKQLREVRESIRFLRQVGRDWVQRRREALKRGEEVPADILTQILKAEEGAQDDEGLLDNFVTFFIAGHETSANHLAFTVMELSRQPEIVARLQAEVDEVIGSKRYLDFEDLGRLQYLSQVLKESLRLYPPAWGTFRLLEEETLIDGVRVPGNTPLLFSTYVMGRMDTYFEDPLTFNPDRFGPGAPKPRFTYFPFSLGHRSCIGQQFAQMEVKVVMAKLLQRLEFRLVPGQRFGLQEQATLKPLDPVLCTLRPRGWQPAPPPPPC
T4 sequence (P28223 whole entry): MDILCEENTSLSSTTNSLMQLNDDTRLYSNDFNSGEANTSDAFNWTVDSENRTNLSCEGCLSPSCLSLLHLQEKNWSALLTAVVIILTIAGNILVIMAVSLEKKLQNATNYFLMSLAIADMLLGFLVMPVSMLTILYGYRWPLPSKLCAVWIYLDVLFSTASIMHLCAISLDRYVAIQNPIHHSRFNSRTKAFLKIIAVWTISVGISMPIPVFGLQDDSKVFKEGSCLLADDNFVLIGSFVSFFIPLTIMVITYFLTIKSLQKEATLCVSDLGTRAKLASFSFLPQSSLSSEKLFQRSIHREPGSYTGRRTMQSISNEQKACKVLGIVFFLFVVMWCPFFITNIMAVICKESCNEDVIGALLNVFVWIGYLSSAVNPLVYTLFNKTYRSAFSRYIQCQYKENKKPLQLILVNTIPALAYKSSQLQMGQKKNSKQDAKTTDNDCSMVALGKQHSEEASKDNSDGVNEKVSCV

As a reminder, the pIC50 is −log10 of the IC50, conventionally taken in molar units. Regarding `O=C(c1cnc2c(-c3cnco3)cc(C(F)(F)F)cn12)N1C2CCC1COC2` [compound 1, (3-oxa-8-azabicyclo[3.2.1]octan-8-yl)(8-(oxazol-5-yl)-6-(trifluoromethyl)imidazo[1,2-a]pyridin-3-yl)methanone], the pIC50 in assay [1] was 7.66.

What is called inhibition is the change of the read-out against control, counted positive when it falls. Consider `O=C(c1cccnc1-c1ccncn1)N1CCC(O)(Cc2ccc(F)cc2)CC1` [compound 2, (4-(4-fluorobenzyl)-4-hydroxypiperidin-1-yl)(2-(pyrimidin-4-yl)pyridin-3-yl)methanone], for which the inhibition at 10 µM is 12.3% in assay [2], -0.7% in assay [3] and -5% in assay [5]. In addition, the pIC50 in assay [4] was 7.49.
